# Structures can show the parent of a compound that is named as a salt.
# How the values were obtained:
# MPXV H1 [1] = biological target: T1, MPXV H1 (Monkeypox virus, UniProt A0A7H0DN78); experiment: biochemical
# MPXV H1 [2] = biological target: T1, MPXV H1; format: biochemical; details: read-out: Michaelis constant (Km); pH 6.5
# mpox = details: in vivo; cited from earlier work
# MPXV = details: cited from earlier work
# VARV H1 = details: cited from earlier work
# T1 sequence (A0A7H0DN78 whole entry, looked up): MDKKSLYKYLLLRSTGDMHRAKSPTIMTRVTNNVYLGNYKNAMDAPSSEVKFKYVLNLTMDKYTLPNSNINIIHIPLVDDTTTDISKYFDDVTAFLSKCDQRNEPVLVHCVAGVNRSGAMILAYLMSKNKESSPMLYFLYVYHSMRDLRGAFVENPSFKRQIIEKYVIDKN
SMILES,IC50 (MPXV H1 [1]),cytotoxicity (in words) (HeLa cells),other results
"CC(=O)c1cc2c(o1)C(=O)c1ccccc1C2=O [Compound 75, Napabucasin]",957 ± 40 nM,substantial cytotoxicity,
"CC1=CC(=O)c2c(O)cccc2C1=O [Compound 109, Plumbagin]",874 ± 24 nM,particularly low cytotoxicity,
"Cc1c(S(=O)(=O)O)oc2c1C(=O)C(=O)c1c-2ccc2c1CCCC2(C)C [Compound 111, Tanshinone IIA sulfonate sodium]",287 ± 10 nM,,
"Nc1cc(N)c(N)cc1N [Compound 118, 1,2,4,5-Benzenetetramine tetrahydrochloride]",333 ± 30 nM,,
"CN(C)CCNc1nc2cc(O)ccc2c2c1C(=O)c1ccccc1-2 [Compound 68, TAS-103 (dihydrochloride)]",865 ± 16 nM,substantial cytotoxicity,
"Cl.Oc1cccc(O)n1 [Compound 57, 2,6-Dihydroxypyridine hydrochloride]",911 ± 64 nM,particularly low cytotoxicity,
"O=[N+]([O-])c1ccc(OP(=O)(O)O)cc1 [pNPP, p-nitrophenyl phosphate]",,,Km (MPXV H1 [2]): 1500 µM
"COc1cc2c3c(c1OC)-c1ccccc1C[C@H]3N(C)CC2 [Compound 112, Nuciferine]",752 ± 9 nM,,
"CC(C)(C)C(=O)Nc1ccc2c(c1)C(=O)C(=O)c1ccccc1-2 [Compound 35, SF1670]",154 ± 12 nM,,
O=C(NN1C(=O)[C@@H]2[C@@H]3C=C[C@@H]([C@H]4C[C@@H]34)[C@@H]2C1=O)c1ccc(C(F)(F)F)cc1 [tecovirimat],,,mpox symptom duration compared with placebo (mpox): did not shorten
"COc1ccc2c(c1OC)CC1c3c(cc4c(c3-2)OCO4)CCN1C (stereo not shown) [Compound 122, Crebanine]",229 ± 21 nM,,
OC(c1cc(C(F)(F)F)nc2c(C(F)(F)F)cccc12)C1CCCCN1 (stereo not shown) [mefloquine],,,inhibition of MPXV (MPXV): inhibit MPXV
"COCCn1c2c([n+](Cc3cnccn3)c1C)C(=O)c1ccccc1C2=O [Compound 108, YM155]",826 ± 65 nM,substantial cytotoxicity,
"COc1cc2c3c(cc4ccccc4c3c1OC)N(C)CC2 [Compound 123, Dehydronuciferine]",356 ± 25 nM,particularly low cytotoxicity,
"CC(C)NC1=CC=CNC1N1CCN(C(=O)c2cc3cc(NS(C)(=O)=O)ccc3[nH]2)CC1 (stereo not shown) [Compound 88, Delavirdine (mesylate)]",987 ± 48 nM,particularly low cytotoxicity,
"Cn1cccc1/C=C1\C(=O)NC(=O)c2ccccc21 [Compound 89, BYK204165]",794 ± 46 nM,particularly low cytotoxicity,
"Cc1coc2c1C(=O)C(=O)c1c-2ccc2c1CCCC2(C)C [Compound 106, Tanshinone IIA]",531 ± 19 nM,,
"CC1(C)CCC2=C(O1)c1ccccc1C(=O)C2=O [Compound 45, Beta-lapachone]",348 ± 17 nM,particularly low cytotoxicity,
CC(C)(c1ccc(NS(=O)(=O)C(F)(F)F)cc1)c1ccc(C(C)(C)c2ccc(NS(=O)(=O)C(F)(F)F)cc2)cc1 [PTP inhibitor IV],18900 nM,,potency of VARV H1 inhibition (VARV H1): low-micromolar potency
"N#CSc1cc(SC#N)c(N)nc1N [Compound 41, PR619]",176 ± 7 nM,particularly low cytotoxicity,
"O=C1C=C(Cl)C(=O)c2ccccc21 [Compound 47, 2-Chloro-1,4-naphthoquinone]",837 ± 56 nM,particularly low cytotoxicity,
"O=C1C(=O)c2ncccc2-c2cccnc21 [Compound 59, Phanquinone]",241 ± 7 nM,,

# Source: PMC12656849 (Viruses, 2025)
